Legend:
P70S6K (T412E mutant) = P70S6K (T412E mutant) (Homo sapiens (Human), UniProt P23443, T412E); test: P70S6K enzyme assay; format: biochemical; conditions: read-out: IC50 p70S6K
How it was run: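 Phosphorylated product and substrate peptide separated by microfluidic capillary electrophoresis (Caliper LabChip 3000), product peaks resolving before substrate.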

His-AKT (Full Length) = His-AKT (Full Length) (Homo sapiens (Human), UniProt P31749); test: AKT enzyme assay; format: biochemical; conditions: read-out: IC50 AKT
His-AKT (Full Length), sequence (P31749 whole entry): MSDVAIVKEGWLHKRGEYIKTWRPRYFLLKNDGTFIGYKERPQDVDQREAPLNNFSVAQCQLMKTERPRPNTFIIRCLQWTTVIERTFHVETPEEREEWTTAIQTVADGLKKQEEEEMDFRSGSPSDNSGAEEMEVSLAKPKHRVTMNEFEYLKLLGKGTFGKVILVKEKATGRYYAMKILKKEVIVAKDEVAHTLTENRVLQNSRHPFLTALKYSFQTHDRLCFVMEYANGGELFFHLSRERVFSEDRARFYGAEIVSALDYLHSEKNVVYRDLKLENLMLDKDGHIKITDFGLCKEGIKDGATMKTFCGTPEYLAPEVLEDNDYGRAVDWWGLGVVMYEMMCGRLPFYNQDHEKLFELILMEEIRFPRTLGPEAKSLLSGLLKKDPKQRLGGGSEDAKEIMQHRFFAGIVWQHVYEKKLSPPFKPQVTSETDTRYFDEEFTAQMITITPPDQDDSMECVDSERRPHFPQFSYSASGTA

P70S6K (T412E mutant), sequence (P23443 whole entry T412E): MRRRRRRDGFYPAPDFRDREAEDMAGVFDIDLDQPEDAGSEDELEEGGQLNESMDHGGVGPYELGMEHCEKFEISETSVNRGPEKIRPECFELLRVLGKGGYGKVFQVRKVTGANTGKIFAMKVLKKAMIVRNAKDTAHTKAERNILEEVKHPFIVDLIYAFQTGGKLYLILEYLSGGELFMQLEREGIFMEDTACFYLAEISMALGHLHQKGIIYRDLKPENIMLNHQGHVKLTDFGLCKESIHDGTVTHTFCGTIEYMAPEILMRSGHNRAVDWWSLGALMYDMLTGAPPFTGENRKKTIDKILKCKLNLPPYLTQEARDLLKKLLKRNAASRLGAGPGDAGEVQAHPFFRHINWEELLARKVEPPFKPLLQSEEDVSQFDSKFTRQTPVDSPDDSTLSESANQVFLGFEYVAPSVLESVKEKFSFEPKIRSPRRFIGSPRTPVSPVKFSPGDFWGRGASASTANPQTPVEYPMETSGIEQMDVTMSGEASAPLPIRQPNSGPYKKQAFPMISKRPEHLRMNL

SMILES	IC50 (P70S6K (T412E mutant))	IC50 (His-AKT (Full Length))
CCc1c(N)ncnc1N1CCC(c2nc(-c3ccnc(Cl)c3)cn2CCN2CCC2)CC1 [Compound 104, 6-(4-(1-(2-(azetidin-1-yl)ethyl)-4-(2-chloropyridin-4-yl)-1H-imidazol-2-yl)piperidin-1-yl)-5-ethylpyrimidin-4-amine]	3.1 nM	16.5 nM
NC(=O)c1c(N)ncnc1N1CCC(c2nc(-c3ccnc(C4CC4)c3)cn2CCN2CCC2)CC1 [Compound 342]	3.7 nM	61 nM
NC(=O)c1c(N)ncnc1N1CCC(c2nc(-c3cn[nH]c3)cn2CCN2CCC2)CC1 [Compound 145, 4-amino-6-(4-(1-(2-(azetidin-1-yl)ethyl)-4-(1H-pyrazol-4-yl)-1H-imidazol-2-yl)piperidin-1-yl)pyrimidine-5-carboxamide]	53 nM	2200 nM
CCc1c(N)ncnc1N1CCC(c2nc(-c3ccc(F)c(C(F)(F)F)c3)cn2CCN2CCC(F)(F)C2)CC1 [Compound 275]	2.8 nM	430 nM
CCc1c(N)ncnc1N1CCC(c2nc(-c3ccc(F)c(F)c3)cn2CCN2CCCC2)CC1 [Compound 233]	1.1 nM	8.2 nM
CCc1c(N)ncnc1N1CCC(c2nc(-c3ccc(F)c(C(F)(F)F)c3)cn2CCN)CC1 [Compound 139, 6-(4-(1-(2-aminoethyl)-4-(4-fluoro-3-(trifluoromethyl)phenyl)-1H-imidazol-2-yl)piperidin-1-yl)-5-ethylpyrimidin-4-amine]	1.1 nM	6.6 nM
Nc1ncnc(N2CCC(c3nc(-c4ccnc(C(F)(F)F)c4)cn3CCN3CCC3)CC2)c1Br [Compound 126, 6-(4-(1-(2-(azetidin-1-yl)ethyl)-4-(2-(trifluoromethyl)pyridin-4-yl)-1H-imidazol-2-yl)piperidin-1-yl)-5-bromopyrimidin-4-amine]	0.5 nM	2.2 nM
Nc1ncnc(N2CCC(c3nc(-c4cccc(C(F)(F)F)c4)cn3CCN3CCCC3)CC2)c1Br [Compound 267]	2.2 nM	4.2 nM
CCc1c(N)ncnc1N1CCC(c2nc(-c3cncc(C)c3)cn2CCN2CCC2)CC1 [Compound 113, 6-(4-(1-(2-(azetidin-1-yl)ethyl)-4-(5-methylpyridin-3-yl)-1H-imidazol-2-yl)piperidin-1-yl)-5-ethylpyrimidin-4-amine]	84 nM	465 nM
CCc1c(N)ncnc1N1CCC(c2nc(-c3ccnc(C)c3)cn2CCN2CCC2)CC1 [Compound 111, 6-(4-(1-(2-(azetidin-1-yl)ethyl)-4-(2-methylpyridin-4-yl)-1H-imidazol-2-yl)piperidin-1-yl)-5-ethylpyrimidin-4-amine]	8.7 nM	106 nM
CCc1c(N)ncnc1N1CCC(c2nc(-c3cccc(OC(F)(F)F)c3)cn2CCN2CCC2)CC1 [Compound 100, 6-(4-(1-(2-(azetidin-1-yl)ethyl)-4-(3-(trifluoromethoxy)phenyl)-1H-imidazol-2-yl)piperidin-1-yl)-5-ethylpyrimidin-4-amine]	2.3 nM	16 nM
CCN(CC)CCn1cc(-c2ccc(F)c(C)c2)nc1C1CCN(c2ncnc(N)c2C(N)=O)CC1 [Compound 349]	25 nM	55 nM
CCc1c(N)ncnc1N1CCC(c2nc(-c3ccc(F)c(C)c3)cn2CCN2CCCC2)CC1 [Compound 297]	3.9 nM	6.6 nM
CN(C)CCn1cc(-c2ccc(F)c(C(F)(F)F)c2)nc1C1CCN(c2ncnc(N)c2C#N)CC1 [Compound 8, 4-Amino-6-{4-[1-(2-dimethylamino-ethyl)-4-(4-fluoro-3-trifluoromethyl-phenyl)-1H-imidazol-2-yl]-piperidin-1-yl}-pyrimidine-5-carbonitrile]	1.8 nM	9.1 nM
N#Cc1c(N)ncnc1N1CCC(c2nc(-c3ccccc3)cn2CCN2CCC2)CC1 [Compound 131, 4-amino-6-(4-(1-(2-(azetidin-1-yl)ethyl)-4-phenyl-1H-imidazol-2-yl)piperidin-1-yl)pyrimidine-5-carbonitrile]	5.7 nM	165 nM
CCc1c(N)ncnc1N1CCC(c2nc(-c3ccc(F)c(C(F)(F)F)c3)cn2CCN2CC(C)C2)CC1 [Compound 93, 5-ethyl-6-(4-(4-(4-fluoro-3-(trifluoromethyl)phenyl)-1-(2-(3-methylazetidin-1-yl)ethyl)-1H-imidazol-2-yl)piperidin-1-yl)pyrimidin-4-amine]	3 nM	7.7 nM
CCc1c(N)ncnc1N1CCC(c2nc(-c3ccc(C(F)(F)F)c(F)c3)cn2CCN2CC[C@H](F)C2)CC1 [Compound 245]	5.3 nM	64 nM
Cc1cc(-c2cn(CCN3CCC3)c(C3CCN(c4ncnc(N)c4OC(C)C)CC3)n2)ccc1F [Compound 178, 6-(4-(1-(2-(azetidin-1-yl)ethyl)-4-(4-fluoro-3-methylphenyl)-1H-imidazol-2-yl)piperidin-1-yl)-5-isopropoxypyrimidin-4-amine]	3.9 nM	2.7 nM

Continued, values first:

IC50 (P70S6K (T412E mutant))	IC50 (His-AKT (Full Length))	SMILES
1 nM	2.4 nM	COc1cc(-c2cn(CCN3CCC3)c(C3CCN(c4ncnc(N)c4C#N)CC3)n2)ccc1F [Compound 120, 4-amino-6-(4-(1-(2-(azetidin-1-yl)ethyl)-4-(4-fluoro-3-methoxyphenyl)-1H-imidazol-2-yl)piperidin-1-yl)pyrimidine-5-carbonitrile]
0.4 nM	1.5 nM	CNCCn1cc(-c2ccc(F)c(C(F)(F)F)c2)nc1C1CCN(c2ncnc(N)c2C#N)CC1 [Compound 374, 4-Amino-6-{4-[4-(4-fluoro-3-trifluoromethyl-phenyl)-1-(2-methylamino-ethyl)-1H-imidazol-2-yl]-piperidin-1-yl}-pyrimidine-5-carbonitrile]
1300 nM	5700 nM	CNc1ncnc(N2CCC(c3nc(-c4ccc(F)c(C)c4)cn3CC3CNC3)CC2)c1Cl [Compound 193, (6-{4-[1-Azetidin-3-ylmethyl-4-(4-fluoro-3-methyl-phenyl)-1H-imidazol-2-yl]-piperidin-1-yl}-5-chloro-pyrimidin-4-yl)-methyl-amine]
5.8 nM	12 nM	Nc1ncnc(N2CCC(c3nc(-c4ccc(F)c(C(F)(F)F)c4)cn3CCN3CCCC3)CC2)c1-c1ccc(C(=O)O)cc1 [Compound 225]
1.7 nM	100 nM	NC(=O)c1c(N)ncnc1N1CCC(c2nc(-c3ccc(F)c(C(F)(F)F)c3)cn2C2CCNC2)CC1 (centres unmarked) [Compound 138, 4-amino-6-(4-(4-(4-fluoro-3-(trifluoromethyl)phenyl)-1-(pyrrolidin-3-yl)-1H-imidazol-2-yl)piperidin-1-yl)pyrimidine-5-carboxamide]
6 nM	7.3 nM	Nc1ncnc(N2CCC(c3nc(-c4ccc(C(F)(F)F)c(F)c4)cn3CCN3CCC3)CC2)c1C1CCC1 [Compound 280]
9 nM	89 nM	CCc1c(N)ncnc1N1CCC(c2nc(-c3ccc(F)c(F)c3)cn2CCN2CCC3(COC3)C2)CC1 [Compound 202, 6-(4-{4-(3,4-Difluoro-phenyl)-1-[2-(2-oxa-6-aza-spiro[3.4]oct-6-yl)-ethyl]-1H-imidazol-2-yl}-piperidin-1-yl)-5-ethyl-pyrimidin-4-ylamine]
7.1 nM	2700 nM	Cc1ccc(-c2c(N)ncnc2N2CCC(c3nc(-c4ccc(F)c(C(F)(F)F)c4)cn3C)CC2)s1 [Compound 20, 6-{4-[4-(4-Fluoro-3-trifluoromethyl-phenyl)-1-methyl-1H-imidazol-2-yl]-piperidin-1-yl}-5-(5-methyl-thiophen-2-yl)-pyrimidin-4-ylamine]
2.8 nM	3.5 nM	Cc1cc(-c2cn(CCN3CCCC3)c(C3CCN(c4ncnc(N)c4C#N)CC3)n2)ccc1F [Compound 324]
2.8 nM	21 nM	COc1c(N)ncnc1N1CCC(c2nc(-c3ccnc(C(F)(F)F)c3)cn2CCN2CCC2)CC1 [Compound 115, 6-(4-(1-(2-(azetidin-1-yl)ethyl)-4-(2-(trifluoromethyl)pyridin-4-yl)-1H-imidazol-2-yl)piperidin-1-yl)-5-methoxypyrimidin-4-amine]
2.2 nM	6.1 nM	COc1c(N)ncnc1N1CCC(c2nc(-c3ccc(F)c(C(F)(F)F)c3)cn2CCN2CCC2)CC1 [Compound 97, 6-(4-(1-(2-(azetidin-1-yl)ethyl)-4-(4-fluoro-3-(trifluoromethyl)phenyl)-1H-imidazol-2-yl)piperidin-1-yl)-5-methoxypyrimidin-4-amine]
87 nM	990 nM	COc1ccc(-c2cn(CCN3CCC3)c(C3CCN(c4ncnc(N)c4C(N)=O)CC3)n2)cc1Cl [Compound 347]
18 nM	85 nM	COCC(C)NCCn1cc(-c2ccc(F)c(C(F)(F)F)c2)nc1C1CCN(c2ncnc(N)c2C(N)=O)CC1 (centres unmarked) [Compound 371, 4-Amino-6-(4-{4-(4-fluoro-3-trifluoromethyl-phenyl)-1-[2-(2-methoxy-1-methyl-ethylamino)-ethyl]-1H-imidazol-2-yl}-piperidin-1-yl)-pyrimidine-5-carboxylic acid amide]
6.4 nM	240 nM	N#Cc1c(N)ncnc1N1CCC(c2nc(-c3ccc(F)c(C(F)(F)F)c3)cn2C2CNC2)CC1 [Compound 142, 4-amino-6-(4-(1-(azetidin-3-yl)-4-(4-fluoro-3-(trifluoromethyl)phenyl)-1H-imidazol-2-yl)piperidin-1-yl)pyrimidine-5-carbonitrile]
6.7 nM	670 nM	Cc1cc(-c2cn(CCO)c(C3CCN(c4ncnc(N)c4-c4cn[nH]c4)CC3)n2)ccc1F [Compound 160, 2-(2-(1-(6-amino-5-(1H-pyrazol-4-yl)pyrimidin-4-yl)piperidin-4-yl)-4-(4-fluoro-3-methylphenyl)-1H-imidazol-1-yl)ethanol]
2.4 nM	15 nM	Cc1cc(-c2cn(CCNC(C)C)c(C3CCN(c4ncnc(N)c4C(N)=O)CC3)n2)ccc1F [Compound 386, 4-Amino-6-{4-[4-(4-fluoro-3-methyl-phenyl)-1-(2-isopropylamino-ethyl)-1H-imidazol-2-yl]-piperidin-1-yl}-pyrimidine-5-carboxylic acid amide]

Source: patent US9145392B2, “Imidazole amines as modulators of kinase activity” (Merck Patent GmbH, priority 2011, dated 2015)
